Experimental data reported in PubChem BioAssay AID602210 (Sanford-Burnham Center for Chemical Genomics, 2012).
Activity calls are given as the source filed them. The rule behind the calls is not given here.

Experiment: H9c2 cardiomyoblast viability modulators under 2-DG – cell-based, ATPlite luminescence, rat, set 2, myocardial damage modulator project, dose response (AID 602210)
Settings: H9c2 rat cardiomyoblasts, 2-deoxyglucose-induced death, 2 h

Structure (SMILES) | IC50
Cc1ccc(-c2nn3c(-c4ccco4)nnc3c3ccccc23)cc1S(=O)(=O)NCC1CCCO1 (stereo not given) | 27.1 µM (inactive)
CCOc1cccc(-c2nn3c(-c4ccccn4)nnc3s2)c1 | 30.2 µM (inactive)
CCN(CC(=O)Nc1ccc(OC)cc1)C(=O)c1cc(-c2cccs2)nn1-c1ccccc1 | 7.55 µM
O=C(Nc1ccccc1)c1nc[nH]c1C(=O)NCCCCNC(=O)c1[nH]cnc1C(=O)Nc1ccccc1 | 4.11 µM
COc1ccc(NC(=O)c2cc3c(=O)n(C)c4ccccc4c3n2C)cc1OC | > 79 µM (inactive)
CCCCn1nc(NC(=O)c2cccs2)c2cc3cc(OC)ccc3nc21 | > 79 µM (inactive)
CCOC(=O)C1CCN(c2cc3c(cc2NC(=O)c2ccccc2Cl)n(C)c(=O)n3C)CC1 | 15.2 µM (inactive)
O=C(Nc1ccccc1)c1nc[nH]c1C(=O)NCCNC(=O)c1[nH]cnc1C(=O)Nc1ccccc1 | 1.17 µM
CC(=O)c1cccc(NC(=O)Nc2ccc3c(c2)N(C)C(=O)CS3)c1 | > 79 µM (inactive)
CN(C)S(=O)(=O)n1cc(/C=C(\NC(=O)c2ccccc2F)C(=O)NCCN2CCOCC2)c2ccccc21 | > 79 µM (inactive)
COC(=O)c1cccc(Nc2nc(-c3cccnc3)nc3ccccc23)c1 | 7.25 µM
COc1ccc(C=NNc2nc3c([nH]2)c(=O)n(C)c(=O)n3C)cc1 | 16.6 µM (inactive)
CC(C)c1ccccc1NC(=O)COC(=O)c1c2c(nc3ccccc13)CCN(Cc1ccccc1)C2 | 7.98 µM
CCOC(=O)C1CCN(C(=O)c2ccc3c(=O)n4nc(Nc5ccccc5OC)sc4nc3c2)CC1 | 15.9 µM (inactive)
N#Cc1c(-c2ccco2)cc(-c2cccnc2)nc1N | 26.1 µM (inactive)
COc1ccc(NC(=O)c2cc(-c3ccc(OC)c(OC)c3)nc3ccccc23)c(OC)c1 | > 79 µM (inactive)
COC(=O)c1ccccc1NC(=O)c1nc2nc(C)cc(C)n2n1 | 67.2 µM (inactive)
COc1cc(C(=O)Nc2nc(-c3cccs3)cs2)cc(OC)c1OC | 8.7 µM
CC(C)c1cc(N2CCN(C(=O)c3ccco3)CC2)n2c(nc3ccccc32)c1C#N | 44.7 µM (inactive)
COc1cc(C(=O)Nc2ccc(NC(=O)c3cccc(Cl)c3)nc2)cc(OC)c1OC | > 79 µM (inactive)
COc1ccc(C(=O)Nc2nc(-c3ccccn3)cs2)cc1S(=O)(=O)N1CCOCC1 | 26.8 µM (inactive)
COc1ccc(CCn2c(=N)c(C(=O)NCC3CCCO3)cc3c(=O)n4cccc(C)c4nc32)cc1OC (stereo not given) | > 79 µM (inactive)

Structure (SMILES) | IC50
COc1ccccc1-c1cc(NC(C)=O)c2ncc(-c3cccc(C(C)=O)c3)n2c1 | > 79 µM (inactive)
NC(=O)c1nsc(C(=O)N(Cc2ccco2)C(C(=O)NCc2ccccc2)c2ccc(O)cc2)c1N (stereo not given) | 14.9 µM (inactive)
COc1ccc(C(=O)COC(=O)Cn2[nH]c(=O)c3ccccc3c2=O)c(OC)c1 | 52.7 µM (inactive)
COc1cc(C(=O)N/N=C/c2ccc(OC(=O)c3ccccc3Cl)cc2)ccc1O | > 79 µM (inactive)
Cc1ccc(NC(=O)c2cc(=O)c3ccccc3o2)cc1S(=O)(=O)N1CCOCC1 | 29.6 µM (inactive)
COC(=O)c1ccc(C(NC(=O)OCc2ccccc2)/C(C)=C/[C@@H](C)C(=O)NCc2ccc(OC)c(OC)c2)cc1 (stereo not given in full) | 23.8 µM (inactive)
COc1cc(NC(=O)c2ccco2)c(OC)cc1NC(=O)c1cc(OC)c(OC)c(OC)c1 | 7.97 µM
Cc1ccc2[nH]c(=O)c(CN(Cc3ccco3)S(=O)(=O)c3c(C)ccc4nsnc34)cc2c1 | 45.3 µM (inactive)
Cc1[nH]c2ccccc2c1/C=N/NC(=O)c1cc(-c2ccccc2)n[nH]1 | 8.98 µM
COc1cccc(/C=N/NC(=O)c2oc3nc(-c4ccccc4)cc(-c4ccco4)c3c2N)c1 | 10.5 µM (inactive)
CC1Cc2ccccc2N1C(=O)c1cc2c(=O)n3ccccc3nc2n1C (stereo not given) | 7.6 µM
N#Cc1c(-c2ccco2)cc(-c2ccccn2)nc1N | 37.2 µM (inactive)
COc1ccc2[nH]c(=O)c(CN(CC3CCCO3)S(=O)(=O)c3ccccc3F)cc2c1 (stereo not given) | 19.2 µM (inactive)
O=C(CNC(=O)c1[nH]cnc1C(=O)NC(c1ccccc1)c1ccccc1)OCc1ccccc1 | 22.3 µM (inactive)
CC1(c2ccccc2)NC(=O)N(CC(=O)Nc2cccc(/C=C/c3ccccn3)c2)C1=O (stereo not given) | 21.8 µM (inactive)
N#C/C(=C\Nc1ccc2c(c1)OCCO2)c1nc2ccccc2[nH]1 | 17.3 µM (inactive)
c1ccc(-c2nc(-n3ccnc3)nc(-n3ccnc3)n2)cc1 | 9.07 µM
C[C@@H](NC(=O)c1nc[nH]c1C(=O)NCC(=O)OCc1ccccc1)c1ccccc1 | 9.89 µM
CCOC(=O)c1cccc(Nc2nc(-c3cccnc3)nc3ccccc23)c1 | > 79 µM (inactive)
O=c1c2ccccc2nc(CSc2ncnc3nc[nH]c23)n1-c1ccc(Cl)c(Cl)c1 | 14.7 µM (inactive)
COc1ccc(Cl)cc1-c1nc(-c2ccc(NC(=O)c3cccs3)cc2)no1 | > 79 µM (inactive)
COc1ccccc1NC(=O)c1cc(-c2ccc(OC)c(OC)c2)nc2ccccc12 | 7.39 µM

Structure (SMILES) | IC50
CCOc1ccc2[nH]c(=O)c(CN(Cc3nnnn3Cc3ccco3)C3CCCCC3)cc2c1 | 9.18 µM
Nc1nonc1-n1nnc(C(=O)N/N=C/c2ccccn2)c1CNc1ccccc1 | 41.4 µM (inactive)
COc1cc(-c2cc(NC(C)=O)c3ncc(-c4ccc(C(C)=O)cc4)n3c2)cc(OC)c1OC | 7.42 µM
COc1cc(OC)c(-c2nn3c(-c4ccco4)nnc3s2)cc1OC | 9.15 µM
CCC(=O)Oc1cccc(C(=O)Nc2ccc(-c3nnc(-c4ccco4)o3)cc2)c1 | > 79 µM (inactive)
COc1ccc2cc3cc(C(=O)NCCc4ccc(OC)c(OC)c4)oc3nc2c1 | 10.4 µM (inactive)
CC(=O)N1CCN(c2ccccc2NC(=O)c2ccc(-c3cccc([N+](=O)[O-])c3)o2)CC1 | 6.88 µM
COc1ccc2c(c1OC)c(=O)n1c3ccc(OC(C)C(=O)NCCN4CCOCC4)cc3c3ccnc2c31 (stereo not given) | 46.6 µM (inactive)
NC(=O)c1oc2ccccc2c1NC(=O)c1ccco1 | 32.2 µM (inactive)
Cc1c(C(=O)NCC2COc3ccccc3O2)oc2ccc(S(=O)(=O)N3CCOCC3)cc12 (stereo not given) | 5.65 µM
CCOC(=O)c1ccc(-c2ccc3ncnc(NCc4csc(C)n4)c3c2)o1 | > 79 µM (inactive)
COc1ccc(N/C=C(\C#N)c2nc3ccccc3n2C)c(OC)c1 | > 79 µM (inactive)
COC(=O)c1ccc(OCC(=O)Nc2ccccc2C(=O)NC2CC2)cc1 | 11.2 µM (inactive)
O=C(N/N=C/c1ccc(-c2cccc([N+](=O)[O-])c2)o1)c1ccc([N+](=O)[O-])cc1 | 11.8 µM (inactive)
O=C(COC(=O)c1ccccc1C(=O)OCC(=O)NCCc1c[nH]c2ccccc12)NCCc1c[nH]c2ccccc12 | 9.24 µM
COc1ccc(N(CC(=O)Nc2cccc(C(C)=O)c2)S(=O)(=O)c2ccc(NC(C)=O)cc2)cc1 | 13.4 µM (inactive)
COc1ccc(OC)c(/C=N/NC(=O)c2cc3c(OC)c(OC)ccc3[nH]2)c1 | 8.62 µM
Cc1ccccc1N(C(=O)c1snc(C(N)=O)c1N)C(C(=O)NCc1ccccc1)c1ccc(O)cc1 (stereo not given) | 18 µM (inactive)
CC(C)=NNc1cnnc2ccc([N+](=O)[O-])cc12 | 13.4 µM (inactive)
COc1cccc(-c2cnc3c(NC(C)=O)cc(-c4cc(OC)c(OC)c(OC)c4)cn23)c1 | > 79 µM (inactive)
COc1ccc(Nc2nnc(SCc3cc(=O)n4ccsc4n3)s2)cc1 | 21.7 µM (inactive)
